Source: ChEMBL document CHEMBL4118211, “Isoxazole-tethered diarylheptanoid analogs: Discovery of a new drug-like PAR2 antagonist” (Bioorg Med Chem Lett, 2018)
Values after ≈ are worked out from the molar mass of the structure shown.

What was measured:
[1] = Kinetic solubility of the compound in phosphate buffer at pH 7.4 at 0.0098 to 10 mM by turbidometric method; assay type: physicochemical; conditions: read-out: Kinetic_solubility
[2] = Metabolic stability in human liver microsomes assessed as parent compound remaining at 1 uM preincubated for 5 mins followed by NADPH addition measured after 30 mins by LC-MS/MS analysis; assay type: ADME, microsome; conditions: read-out: Stability
HepG2 = experiment: Cytotoxicity against human HepG2 cells assessed as reduction in cell viability after 24 hrs by MTT assay; assay type: cell-based; conditions: HepG2, 24 h
[3] = target: Amyloid-beta precursor protein (Homo sapiens, UniProt P05067); experiment: Displacement of [125I]IMPY from fibrillar amyloid beta 42 (unknown origin) after 3 hrs
[4] = target: T1, Proteinase-activated receptor 2 (Homo sapiens, UniProt P55085); experiment: Antagonist activity at PAR2 in human 1321N1 cells assessed as inhibition of trypsin-induced intracellular calcium flux pretreated for 60 mins followed by trypsin addition by Fluo-8 NW dye based FLIPR assay; assay type: functional, cell-based
T1 sequence (P55085 whole entry): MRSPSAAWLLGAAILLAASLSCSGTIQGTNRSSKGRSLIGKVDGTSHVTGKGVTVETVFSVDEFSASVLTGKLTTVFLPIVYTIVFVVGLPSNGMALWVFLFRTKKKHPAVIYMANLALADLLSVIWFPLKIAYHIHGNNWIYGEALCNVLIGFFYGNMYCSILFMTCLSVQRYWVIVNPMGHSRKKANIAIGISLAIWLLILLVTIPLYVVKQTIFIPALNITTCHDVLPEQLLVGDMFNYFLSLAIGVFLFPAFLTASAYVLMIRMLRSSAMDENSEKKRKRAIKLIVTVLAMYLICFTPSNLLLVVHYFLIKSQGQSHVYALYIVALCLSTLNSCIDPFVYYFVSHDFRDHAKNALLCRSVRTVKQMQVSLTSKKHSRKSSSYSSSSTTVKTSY

[5] = target: Proteinase-activated receptor 2 (Homo sapiens) (UniProt P55085); experiment: Antagonist activity at PAR2 in human HEK293 cells assessed as trypsin-induced intracellular calcium flux at 1 uM pretreated for 15 mins followed by trypsin addition by Fluo-8 dye based fluorescence assay relative to control; assay type: functional, cell-based; parameters: scale not given: the % may be the effect or the level left
[6] = Permeability from basolateral to apical side in human Caco2 cells at 5 uM after 90 mins; assay type: ADME, cell-based; conditions: Caco-2, read-out: permeability
[7] = target: Proteinase-activated receptor 2 (Homo sapiens) (UniProt P55085); experiment: Antagonist activity at PAR2 in human HEK293 cells assessed as trypsin-induced intracellular calcium flux at 0.01 uM pretreated for 15 mins followed by trypsin addition by Fluo-8 dye based fluorescence assay relative to control; assay type: functional, cell-based; parameters: scale not given: the % may be the effect or the level left
[8] = target: Proteinase-activated receptor 2 (Homo sapiens) (UniProt P55085); experiment: Antagonist activity at PAR2 in human HEK293 cells assessed as trypsin-induced intracellular calcium flux at 0.1 uM pretreated for 15 mins followed by trypsin addition by Fluo-8 dye based fluorescence assay relative to control; assay type: functional, cell-based; parameters: scale not given: the % may be the effect or the level left
[9] = target: T1, Proteinase-activated receptor 2; experiment: Antagonist activity at PAR2 in human HEK293 cells assessed as inhibition of trypsin-induced intracellular calcium flux pretreated for 15 mins followed by trypsin addition by Fluo-8 dye based fluorescence assay; assay type: functional, cell-based
[10] = target: Proteinase-activated receptor 2 (Homo sapiens) (UniProt P55085); experiment: Antagonist activity at PAR2 in human HEK293 cells assessed as trypsin-induced intracellular calcium flux at 0.3 uM pretreated for 15 mins followed by trypsin addition by Fluo-8 dye based fluorescence assay relative to control; assay type: functional, cell-based; parameters: scale not given: the % may be the effect or the level left
[11] = target: Proteinase-activated receptor 2 (Homo sapiens) (UniProt P55085); experiment: Antagonist activity at PAR2 in human HEK293 cells assessed as trypsin-induced intracellular calcium flux at 10 uM pretreated for 15 mins followed by trypsin addition by Fluo-8 dye based fluorescence assay relative to control; assay type: functional, cell-based; parameters: scale not given: the % may be the effect or the level left
[12] = target: Proteinase-activated receptor 2 (Homo sapiens) (UniProt P55085); experiment: Antagonist activity at PAR2 in human HEK293 cells assessed as inhibition of trypsin-induced intracellular calcium flux at 30 uM pretreated for 15 mins followed by trypsin addition by Fluo-8 dye based fluorescence assay relative to control; assay type: functional, cell-based
[13] = target: Proteinase-activated receptor 2 (Homo sapiens) (UniProt P55085); experiment: Antagonist activity at PAR2 in human HEK293 cells assessed as trypsin-induced intracellular calcium flux at 3 uM pretreated for 15 mins followed by trypsin addition by Fluo-8 dye based fluorescence assay relative to control; assay type: functional, cell-based; parameters: scale not given: the % may be the effect or the level left
[14] = Permeability from apical to basolateral side in human Caco2 cells at 5 uM after 90 mins; assay type: ADME, cell-based; conditions: Caco-2, read-out: permeability
[15] = target: Proteinase-activated receptor 2 (Homo sapiens) (UniProt P55085); experiment: Antagonist activity at PAR2 in human HEK293 cells assessed as trypsin-induced intracellular calcium flux at 100 uM pretreated for 15 mins followed by trypsin addition by Fluo-8 dye based fluorescence assay relative to control; assay type: functional, cell-based; parameters: scale not given: the % may be the effect or the level left
[16] = target: Proteinase-activated receptor 2 (Homo sapiens) (UniProt P55085); experiment: Antagonist activity at PAR2 in human HEK293 cells assessed as inhibition of trypsin-induced intracellular calcium flux at 10 uM pretreated for 15 mins followed by trypsin addition by Fluo-8 dye based fluorescence assay relative to control; assay type: functional, cell-based

Amyloid-beta precursor protein, sequence (P05067 whole entry): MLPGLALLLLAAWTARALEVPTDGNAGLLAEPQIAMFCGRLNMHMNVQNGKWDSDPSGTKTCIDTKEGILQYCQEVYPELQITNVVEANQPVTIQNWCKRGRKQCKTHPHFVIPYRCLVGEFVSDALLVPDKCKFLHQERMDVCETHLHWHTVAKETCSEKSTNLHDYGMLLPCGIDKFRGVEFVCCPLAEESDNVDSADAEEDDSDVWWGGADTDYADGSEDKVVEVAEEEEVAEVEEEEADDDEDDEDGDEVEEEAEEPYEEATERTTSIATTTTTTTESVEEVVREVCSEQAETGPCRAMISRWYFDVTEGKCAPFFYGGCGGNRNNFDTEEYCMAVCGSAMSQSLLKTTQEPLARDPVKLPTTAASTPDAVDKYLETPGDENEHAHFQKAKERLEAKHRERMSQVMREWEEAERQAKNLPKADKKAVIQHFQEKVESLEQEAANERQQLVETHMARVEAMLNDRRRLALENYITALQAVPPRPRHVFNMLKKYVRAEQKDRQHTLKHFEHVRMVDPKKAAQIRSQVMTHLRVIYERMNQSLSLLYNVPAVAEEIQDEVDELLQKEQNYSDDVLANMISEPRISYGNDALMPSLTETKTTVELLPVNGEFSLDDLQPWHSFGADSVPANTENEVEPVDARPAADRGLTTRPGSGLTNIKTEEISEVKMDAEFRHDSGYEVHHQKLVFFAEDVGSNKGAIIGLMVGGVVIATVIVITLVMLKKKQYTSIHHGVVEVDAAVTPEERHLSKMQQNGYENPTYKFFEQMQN

SMILES	solubility kinetic [1] [µM]	remaining at 0.5 h, 1 µM [2] [%]	IC50 (HepG2) [µM]	further results
COc1ccc(-c2cc([C@@H](O)C[C@@H](O)CCc3ccc(Cl)cc3)no2)cc1	12 (≈ 4.65 µg/mL)	< 20	> 100	–
COc1cc(/C=C/c2cc(/C=C/c3ccc(O)c(OC)c3)on2)ccc1O	–	–	–	IC50 [3]: 0.138 µM
CCCc1cc(F)ccc1[C@H](O)c1ncc[nH]1	–	–	–	IC50 [4]: 4.2 µM
O[C@@H](CCc1ccc(F)cc1)C[C@H](O)c1cc(-c2ccccc2)on1	25 (≈ 8.53 µg/mL)	84	> 100	Activity [5]: 74 to 78%; Papp B→A at 1.5 h, 5 µM [6]: 5.8 ×10⁻⁶ cm/s; Activity [7]: 95 to 100%; Activity [8]: 90 to 95%; IC50 [9]: 6 µM; Activity [10]: 80 to 85%; Activity [11]: 43 to 48%; inhibition [12]: 80%; Activity [13]: 60 to 65%; Papp A→B at 1.5 h, 5 µM [14]: 7.4 ×10⁻⁶ cm/s; Activity [15]: 15 to 20%
O[C@@H](CCc1ccc(F)cc1)C[C@@H](O)c1cc(-c2ccccc2)on1	25 (≈ 8.53 µg/mL)	73	> 100	Activity [5]: 100%; Papp B→A at 1.5 h, 5 µM [6]: 5 ×10⁻⁶ cm/s; Activity [11]: 65 to 70%; inhibition [12]: 70%; Activity [13]: 100%; Papp A→B at 1.5 h, 5 µM [14]: 6.3 ×10⁻⁶ cm/s
COc1cc(/C=C/C(=O)CC(=O)/C=C/c2ccc(O)c(OC)c2)ccc1O [CURCUMIN]	3 (≈ 1.11 µg/mL)	21	10	Papp B→A at 1.5 h, 5 µM [6]: < 0.5 ×10⁻⁶ cm/s; Papp A→B at 1.5 h, 5 µM [14]: < 0.5 ×10⁻⁶ cm/s
COc1ccc(CC[C@H](O)C[C@H](O)c2cc(-c3ccccc3)on2)cc1	25 (≈ 8.84 µg/mL)	33	> 100	–
C[C@@H](C1CCCCC1)n1c(-c2cc3c(cc2Br)OCO3)nc2cc(C(=O)Nc3ccc(C#N)cc3)ccc21	–	–	–	IC50 [4]: 6.6 µM
COc1ccc(CC[C@H](O)C[C@H](O)c2cc(-c3ccc(OC)cc3)on2)cc1	12 (≈ 4.6 µg/mL)	< 20	> 100	–
CC[C@H](C)[C@H](NC(=O)[C@H](CC1CCCCC1)NC(=O)c1ccno1)C(=O)N1CCC2(CCc3ccccc32)CC1	–	–	–	inhibition [16]: 42%
COc1cccc(CC[C@H](O)C[C@@H](O)c2cc(-c3ccccc3)on2)c1	25 (≈ 8.84 µg/mL)	< 20	> 100	–
COc1ccc(CC[C@H](O)C[C@@H](O)c2cc(-c3ccccc3)on2)cc1	25 (≈ 8.84 µg/mL)	32	> 100	–
